These results are taken from US9777015B2, “Useful thiophene derivatives in the treatment of diabetes” (METABRAIN RESEARCH, priority 2012, dated 2017).

SMILES strings stand for the structures.

The test system of the test is hepatocytes isolated from Wistar rat liver. Briefly: Test of inhibition of hepatic production of glucose (isolated hepatocytes, 3 h or 20 h incubation). It counts as cell-based. To be noted: 3 h incubation; for activity at 50 µM / activity at 100 µM: Rattus norvegicus, Hepatocyte, 3 h, hepatic glucose production, rat hepatocytes; for activity at 50 µM: compound at 50 μM, read-out: HGP % of ctrl @ 50 μM; for activity at 100 µM: compound at 100 μM, read-out: HGP % of ctrl @ 100 μM; for inhibition of hepatic production of glucose: with two doses. The protocol: The hepatocytes are isolated from Wistar rat liver having fasted for 24 h after perfusion of collagenase in the portal vein. The freshly isolated hepatocytes are sown in 6-well plates coated with collagen and containing an adhesion medium (Williams Medium). After adhesion, the medium is replaced with RPMI 1640 medium without any glucose, containing hydrocortisone (7.10^−5M) for a duration from 16 to 18 h. The next day, the glucose hepatic production test is conducted in a Krebs medium for 3 h. The basal conditions are cells incubated with only Krebs, the stimulated conditions are the cells placed in Krebs+lactate+pyruvate, the produced conditions are the cells exposed to chemical compounds in a Krebs/lactate/pyruvate medium. In the case when the compounds are dissolved in DMSO, all the conditions of the tests are met in the presence of a final concentration of 0.1% DMSO. The positive control of the test is the mercaptopicolinate known for its inhibitory action on hepatic production of glucose via the phosphoenolpyruvate carboxykinase. For short term treatments, the compounds are incubated for 3 h. For long term treatments, the compounds are incubated for 20 h at the moment when the hepatocytes are cultivated in RPMI and then added during the hepatic production test for 3 h. At the end of the 3 hours of incubation, the supernatant is recovered for measurement of glucose with a colorimetric method using glucose oxidase. The cells are lysed with a 0.1% NaOH aqueous solution in order to measure the amount of protein with the Lowry method. The results are expressed in mmols of glucose per mg of protein.

As for `COC(=O)Cc1cc(C(=O)c2cccc(Cl)c2)sc1-c1ccccc1` [compound 2, methyl 2-(5-(3-chlorobenzoyl)-2-phenylthiophen-3-yl)acetate], the activity at 50 µM was 83% and the activity at 100 µM stood at 62%.
`COC(=O)Cc1cc(C(=O)c2cccc(OC)c2)sc1-c1ccccc1` [compound 4, methyl 2-(5-(3-methoxybenzoyl)-2-phenylthiophen-3-yl)acetate]: the activity at 50 µM was found to be 77% and the activity at 100 µM amounted to 75%.
In the same order, the values of `COC(=O)Cc1cc(C(=O)c2ccc(OC)cc2)sc1-c1ccccc1` [compound 5, methyl 2-(5-(4-methoxybenzoyl)-2-phenylthiophen-3-yl)acetate] are 68% and 50%.
The matching figures for `COC(=O)Cc1cc(C(=O)C2CCCCC2)sc1-c1ccccc1` [compound 6, methyl 2-(5-(cyclohexanecarbonyl)-2-phenylthiophen-3-yl)acetate]: 72% and 55%.
As for `COC(=O)Cc1cc(C(=O)c2ccccc2)sc1-c1ccccc1` [compound 7, methyl 2-(5-benzoyl-2-phenyl-thiophen-3-yl)acetate], the activity at 50 µM was 84% and the activity at 100 µM stood at 70%.
In the same order, the values of `CCOC(=O)Cc1cc(C(=O)c2cccc(OC)c2)sc1-c1ccc(Cl)cc1` [compound 12, ethyl 2-(2-(4-chlorophenyl)-5-(3-methoxybenzoyl)thiophen-3-yl)acetate] are 70% and 53%.
In the case of `CCOC(=O)Cc1cc(C(=O)Cc2ccccc2)sc1-c1ccc(Cl)cc1` [compound 16, ethyl 2-(2-(4-chlorophenyl)-5-(2-phenylacetyl)thiophen-3-yl)acetate], the activity at 50 µM came to 69% and the activity at 100 µM came out at 63%.
In the same order, the values of `CCOC(=O)Cc1cc(C(=O)CCc2ccccc2)sc1-c1ccc(Cl)cc1` [compound 17, ethyl 2-(2-(4-chlorophenyl)-5-(3-phenylpropanoyl)thiophen-3-yl)acetate] are 76% and 73%.
In the same order, the values of `CCOC(=O)Cc1cc(C(=O)c2ccccc2OC)sc1-c1ccc(OC)cc1` [compound 23, ethyl 2-(5-(2-methoxybenzoyl)-2-(4-methoxyphenyl)thiophen-3-yl)acetate] are 79% and 73%.
In the same order, the values of `CCOC(=O)Cc1cc(C(=O)c2cccc(F)c2)sc1-c1ccc(OC)cc1` [compound 26, ethyl 2-(5-(3-fluorobenzoyl)-2-(4-methoxyphenyl)thiophen-3-yl)acetate] are 86% and 71%.
For the molecule `CCOC(=O)Cc1cc(C(=O)CCc2ccccc2)sc1-c1ccc(OC)cc1` [compound 38, ethyl 2-(2-(4-methoxyphenyl)-5-(3-phenylpropanoyl)thiophen-3-yl)acetate], the activity at 50 µM is 74% and the activity at 100 µM stood at 70%.
For `COc1ccc(C(=O)c2cc(CC(=O)OC(C)C)c(-c3ccc(Cl)cc3)s2)cc1` [compound 43, isopropyl 2-(2-(4-chlorophenyl)-5-(4-methoxybenzoyl)thiophen-3-yl)acetate], the activity at 50 µM was determined as 82% and the activity at 100 µM worked out at 73%.
In the case of `COc1ccc(C(=O)c2cc(CC(=O)O)c(-c3ccc(OC)cc3)s2)cc1` [compound 45, 2-(5-(4-methoxybenzoyl)-2-(4-methoxyphenyl)thiophen-3-yl)acetic acid], the activity at 50 µM amounted to 82% and the activity at 100 µM worked out at 73%.
For the molecule `COc1ccc(-c2sc(C(=O)C3CCCCC3)cc2CC(=O)O)cc1` [compound 46, 2-(5-(cyclohexanecarbonyl)-2-(4-methoxyphenyl)thiophen-3-yl)acetic acid], the activity at 50 µM amounted to 74% and the activity at 100 µM is 55%.
The matching figures for `O=C(O)Cc1cc(C(=O)c2ccco2)sc1-c1ccccc1` [compound 48, 2-(5-(furan-2-carbonyl)-2-phenyl-thiophen-3-yl)acetic acid]: 91% and 73%.
With `O=C(O)Cc1cc(C(=O)c2cccc(Cl)c2)sc1-c1ccccc1` [compound 49, 2-(5-(3-chlorobenzoyl)-2-phenyl-thiophen-3-yl)acetic acid], the “inhibition of hepatic production of glucose” value (“inhibition” for short) is reported as “strongest inhibitions”, the activity at 50 µM is 57% and the activity at 100 µM was 38%.
Consider `COc1cccc(C(=O)c2cc(CC(=O)O)c(-c3ccccc3)s2)c1` [compound 50, 2-(5-(3-methoxybenzoyl)-2-phenylthiophen-3-yl)acetic acid], for which the activity at 50 µM was 97% and the activity at 100 µM stood at 75%.
Take `COc1ccc(C(=O)c2cc(CC(=O)O)c(-c3ccccc3)s2)cc1` [compound 51, 2-(5-(4-methoxybenzoyl)-2-phenylthiophen-3-yl)acetic acid]: the activity at 50 µM worked out at 90% and the activity at 100 µM came to 54%.
The matching figures for `O=C(O)Cc1cc(C(=O)Cc2ccc(F)cc2)sc1-c1ccccc1` [compound 54, 2-(5-(2-(4-fluorophenyl)acetyl)-2-phenylthiophen-3-yl)acetic acid]: 85% and 74%.
The matching figures for `O=C(O)Cc1cc(C(=O)c2ccc(Cl)c(Cl)c2)sc1-c1ccc(Cl)cc1` [compound 57, 2-(2-(4-chlorophenyl)-5-(3,4-dichlorobenzoyl)thiophen-3-yl)acetic acid]: 77% and 51%.
Take `O=C(O)Cc1cc(C(=O)c2cccc(Cl)c2)sc1-c1ccc(Cl)cc1` [compound 58, 2-(5-(3-chlorobenzoyl)-2-(4-chlorophenyl)thiophen-3-yl)acetic acid]: the “inhibition” value is “strongest inhibitions”, the activity at 50 µM was 51% and the activity at 100 µM came out at 25%.
As to `COc1cccc(C(=O)c2cc(CC(=O)O)c(-c3ccc(Cl)cc3)s2)c1` [compound 59, 2-(2-(4-chlorophenyl)-5-(3-methoxybenzoyl)thiophen-3-yl) acetic acid], the activity at 50 µM stood at 67% and the activity at 100 µM amounted to 35%.
For `COc1ccc(C(=O)c2cc(CC(=O)O)c(-c3ccc(Cl)cc3)s2)cc1` [compound 60, 2-(2-(4-chlorophenyl)-5-(4-methoxybenzoyl)thiophen-3-yl) acetic acid], the activity at 50 µM was 74% and the activity at 100 µM was 53%.
Turning to `O=C(O)Cc1cc(C(=O)C2CCCCC2)sc1-c1ccc(Cl)cc1` [compound 61, 2-(2-(4-chlorophenyl)-5-(cyclohexanecarbonyl)thiophen-3-yl)acetic acid], the activity at 50 µM is 78% and the activity at 100 µM stood at 66%.
On to `O=C(O)Cc1cc(C(=O)CCc2ccccc2)sc1-c1ccc(Cl)cc1` [compound 63, 2-(2-(4-chlorophenyl)-5-(3-phenylpropanoyl)thiophen-3-yl) acetic acid], for which the “inhibition” value is recorded as “strongest inhibitions”, the activity at 50 µM worked out at 56% and the activity at 100 µM came out at 28%.
Consider `COc1ccc(-c2sc(C(=O)c3ccc(F)cc3F)cc2CC(=O)O)cc1` [compound 65, 2-(5-(2,4-difluorobenzoyl)-2-(4-methoxyphenyl)thiophen-3-yl)acetic acid], for which the activity at 50 µM was 93% and the activity at 100 µM was 66%.
